This assay concerns the target T1, Human TRPC6 (Homo sapiens, UniProt Q9Y210).
T1 construct: expressed in transfected cells
T1 sequence (Q9Y210 1-931): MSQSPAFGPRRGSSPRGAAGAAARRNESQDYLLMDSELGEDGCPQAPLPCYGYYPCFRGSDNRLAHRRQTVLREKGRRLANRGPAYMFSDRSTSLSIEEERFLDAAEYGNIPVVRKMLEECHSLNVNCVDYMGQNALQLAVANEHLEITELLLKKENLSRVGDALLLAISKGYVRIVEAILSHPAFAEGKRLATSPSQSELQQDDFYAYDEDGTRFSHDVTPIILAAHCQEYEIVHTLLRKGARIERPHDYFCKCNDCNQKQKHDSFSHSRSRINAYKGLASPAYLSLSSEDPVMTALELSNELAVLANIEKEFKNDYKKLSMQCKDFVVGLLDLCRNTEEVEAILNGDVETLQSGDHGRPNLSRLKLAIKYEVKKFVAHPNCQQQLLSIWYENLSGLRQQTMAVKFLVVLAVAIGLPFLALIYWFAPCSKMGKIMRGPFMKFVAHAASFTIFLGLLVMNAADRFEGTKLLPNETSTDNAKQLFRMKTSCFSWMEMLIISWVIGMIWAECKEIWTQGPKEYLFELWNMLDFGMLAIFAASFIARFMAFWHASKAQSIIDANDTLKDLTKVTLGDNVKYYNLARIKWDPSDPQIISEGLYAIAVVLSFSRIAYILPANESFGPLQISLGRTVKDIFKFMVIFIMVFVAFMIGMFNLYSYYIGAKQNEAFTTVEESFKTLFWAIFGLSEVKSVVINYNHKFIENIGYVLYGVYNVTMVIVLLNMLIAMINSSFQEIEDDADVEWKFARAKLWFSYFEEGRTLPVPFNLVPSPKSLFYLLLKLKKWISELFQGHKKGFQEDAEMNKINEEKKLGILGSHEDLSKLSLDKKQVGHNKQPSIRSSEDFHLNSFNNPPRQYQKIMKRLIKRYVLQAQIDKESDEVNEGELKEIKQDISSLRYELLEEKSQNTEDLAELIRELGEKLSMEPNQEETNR
Kind of assay: Evaluation of TRPC6 channel inhibitory activity (1), FLIPR Calcium 5 Assay Kit, OAG stimulation (Compound Nos. 1-1293). The format is cell-based. The conditions noted are these: Human TRPC6 stably-expressing cells, OAG 30 μM, FLIPR Calcium 5 Assay Kit; read-out: Inhibitory activity (pIC50 class) (converted). A digest of the protocol: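 The FLIPR signal is maximum fluorescence after 30 μM OAG minus minimum before compound, measured in a human TRPC6 stable line loaded with Calcium 5 dye. Compounds were preincubated 20 min. pIC50 came from four-parameter logistic fitting of inhibition rates and is given as symbol ranges.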

Take `CN(C)c1cc(Oc2cc(C#N)ccc2-c2ccc([C@H](O)CN)cn2)n(C)n1` [compound 546, 4-[5-[(1S)-2-amino-1-hydroxyethyl]pyridin-2-yl]-3-[5-(dimethylamino)-2-methylpyrazol-3-yl]oxybenzonitrile]: the IC50 was 10 to 1000 nM.
Take `CC(=O)Nc1cc(Oc2cc(C#N)ccc2-c2ccc(CCN)cn2)n(C)n1` [compound 547, N-[5-[2-[5-(2-aminoethyl)pyridin-2-yl]-5-cyanophenoxy]-1-methylpyrazol-3-yl]acetamide]: the IC50 is 10 to 1000 nM.
As for `CC(=O)Nc1cc(Oc2cc(C#N)ccc2-c2ccc([C@H](O)CN)cn2)n(C)n1` [compound 548, N-[5-[2-[5-[(1S)-2-amino-1-hydroxyethyl]pyridin-2-yl]-5-cyanophenoxy]-1-methylpyrazol-3-yl]acetamide], the figure is > 1000 nM; as for `CC(C)Nc1cc(Oc2cc(C#N)ccc2-c2ccc([C@H](O)CN)cn2)n(C)n1` [compound 549, 4-[5-[(1S)-2-amino-1-hydroxyethyl]pyridin-2-yl]-3-[2-methyl-5-(propan-2-ylamino)pyrazol-3-yl]oxybenzonitrile], 10 to 1000 nM.
As for `Cc1cc(Oc2cc(C#N)ccc2-c2ccc([C@H](O)CN)cn2)cc(N2CCOC[C@H]2C)n1` [compound 550, 4-[5-[(1S)-2-amino-1-hydroxyethyl]pyridin-2-yl]-3-[2-methyl-6-[(3R)-3-methylmorpholin-4-yl]pyridin-4-yl]oxybenzonitrile], the figure is < 10 nM; as for `Cn1nc(C2CC2)cc1Oc1cc(C#N)ccc1-c1cc(C(=O)NCCN)ccn1` [compound 551, N-(2-aminoethyl)-2-[4-cyano-2-(5-cyclopropyl-2-methylpyrazol-3-yl)oxyphenyl]pyridine-4-carboxamide], 10 to 1000 nM; as for `Cn1nc(C2CC2)cc1Oc1cc(C#N)ccc1-c1cc(C(=O)N2CCNCC2)ccn1` [compound 552, 3-(5-cyclopropyl-2-methylpyrazol-3-yl)oxy-4-[4-(piperazine-1-carbonyl)pyridin-2-yl]benzonitrile], > 1000 nM.
As for `Cn1nc(C2CC2)cc1Oc1cc(C#N)ccc1-c1cc(C(=O)N2CCC(N)CC2)ccn1` [compound 553, 4-[4-(4-aminopiperidine-1-carbonyl)pyridin-2-yl]-3-(5-cyclopropyl-2-methylpyrazol-3-yl)oxybenzonitrile], the figure is > 1000 nM.
With `Cn1nc(C2CC2)cc1Oc1cc(C#N)ccc1-c1cc(C(=O)N2CCC[C@@H](N)C2)ccn1` [compound 554, 4-[4-[(3R)-3-aminopiperidine-1-carbonyl]pyridin-2-yl]-3-(5-cyclopropyl-2-methylpyrazol-3-yl)oxybenzonitrile], the IC50 was > 1000 nM.
With `Cn1nc(C2CC2)cc1Oc1cc(C#N)ccc1-c1cc(C(=O)N2CCC[C@H](N)C2)ccn1` [compound 555, 4-[4-[(3S)-3-aminopiperidine-1-carbonyl]pyridin-2-yl]-3-(5-cyclopropyl-2-methylpyrazol-3-yl)oxybenzonitrile], the IC50 is > 1000 nM.
For the compound `Cn1nc(C2CC2)cc1Oc1cc(C#N)ccc1-c1cc(OCCN)ccn1` [compound 556, 4-[4-(2-aminoethoxy)pyridin-2-yl]-3-(5-cyclopropyl-2-methylpyrazol-3-yl)oxybenzonitrile], the IC50 was 10 to 1000 nM.
Then `Cn1nc(Oc2cc(C#N)ccc2-c2ccc(CCN)cn2)cc1N1CCOCC1` [compound 557, 4-[5-(2-aminoethyl)pyridin-2-yl]-3-(1-methyl-5-morpholin-4-ylpyrazol-3-yl)oxybenzonitrile], with 10 to 1000 nM; and `Cc1nc(Oc2cc(C#N)ccc2-c2ccc([C@H](O)CN)cn2)cc(N2CCO[C@@H](C)C2)n1` [compound 558, 4-[5-[(1S)-2-amino-1-hydroxyethyl]pyridin-2-yl]-3-[2-methyl-6-[(2S)-2-methylmorpholin-4-yl]pyrimidin-4-yl]oxybenzonitrile], with 10 to 1000 nM; and `Cc1nc(Oc2cc(C#N)ccc2-c2ncc([C@H](O)CN)cn2)cc(N2CCO[C@@H](C)C2)n1` [compound 559, 4-[5-[(1S)-2-amino-1-hydroxyethyl]pyrimidin-2-yl]-3-[2-methyl-6-[(2S)-2-methylmorpholin-4-yl]pyrimidin-4-yl]oxybenzonitrile], with 10 to 1000 nM.
As for `Cc1nc(Oc2cc(C#N)ccc2-c2ccc([C@H](O)CN)cn2)cc(N2CCOC(C)(C)C2)n1` [compound 560, 4-[5-[(1S)-2-amino-1-hydroxyethyl]pyridin-2-yl]-3-[6-(2,2-dimethylmorpholin-4-yl)-2-methylpyrimidin-4-yl]oxybenzonitrile], the figure is 10 to 1000 nM; as for `Cc1nc(Oc2cc(C#N)ccc2-c2ncc([C@H](O)CN)cn2)cc(N2CCOC(C)(C)C2)n1` [compound 561, 4-[5-[(1S)-2-amino-1-hydroxyethyl]pyrimidin-2-yl]-3-[6-(2,2-dimethylmorpholin-4-yl)-2-methylpyrimidin-4-yl]oxybenzonitrile], 10 to 1000 nM; as for `Cc1cc(Oc2cc(C#N)ccc2-c2ccc(CC3(N)COC3)cn2)cc(N2CCOCC2)n1` [compound 562, 4-[5-[(3-aminooxetan-3-yl)methyl]pyridin-2-yl]-3-(2-methyl-6-morpholin-4-ylpyridin-4-yl)oxybenzonitrile], < 10 nM.
Then `Cc1cc(Oc2cc(C#N)ccc2-c2ncc(OC3CNC3)cn2)cc(N2CCOCC2)n1` [compound 563, 4-[5-(azetidin-3-yloxy)pyrimidin-2-yl]-3-(2-methyl-6-morpholin-4 ylpyridin-4-yl)oxybenzonitrile], with > 1000 nM; and `Cc1cc(Oc2cc(C#N)ccc2-c2ccc(OC3CNC3)cn2)cc(N2CCOCC2)n1` [compound 564, 4-[5-(azetidin-3-yloxy)pyridin-2-yl]-3-(2-methyl-6-morpholin-4-ylpyridin-4-yl)oxybenzonitrile], with 10 to 1000 nM; and `Cc1cc(Oc2cc(C#N)ccc2-c2ccc(N3CC[C@H](N)C3=O)cn2)cc(N2CCOCC2)n1` [compound 565, 4-[5-[(3S)-3-amino-2-oxopyrrolidin-1-yl]pyridin-2-yl]-3-(2-methyl-6-morpholin-4-ylpyridin-4-yl)oxybenzonitrile], with > 1000 nM.
On to `Cc1cc(Oc2cc(C#N)ccc2-c2ccn(CCN)c(=O)c2)cc(N2CCOCC2)n1` [compound 566, 4-[1-(2-aminoethyl)-2-oxopyridin-4-yl]-3-(2-methyl-6-morpholin-4-ylpyridin-4-yl)oxybenzonitrile], for which the IC50 is 10 to 1000 nM.
As for `Cc1cc(Oc2cc(C#N)ccc2-c2ccnc(OCCN)c2)cc(N2CCOCC2)n1` [compound 567, 4-[2-(2-aminoethoxy)pyridin-4-yl]-3-(2-methyl-6-morpholin-4-ylpyridin-4-yl)oxybenzonitrile], the figure is 10 to 1000 nM; as for `Cc1cc(Oc2cc(C#N)ccc2-c2ccc(N3CC(N)CC3=O)cn2)cc(N2CCOCC2)n1` (stereo not shown) [compound 568, 4-[5-(4-amino-2-oxopyrrolidin-1-yl)pyridin-2-yl]-3-(2-methyl-6-morpholin-4-ylpyridin-4-yl)oxybenzonitrile], > 1000 nM; as for `Cc1cc(Oc2cc(C#N)ccc2-c2ccc(N3CC[C@@H](N)C3=O)cn2)cc(N2CCOCC2)n1` [compound 569, 4-[5-[(3R)-3-amino-2-oxopyrrolidin-1-yl]pyridin-2-yl]-3-(2-methyl-6-morpholin-4-ylpyridin-4-yl)oxybenzonitrile], > 1000 nM.
Take `Cn1nc(C2CC2)cc1Oc1cc(C#N)ccc1-c1cccn2c(CCN)nnc12` [compound 570, 4-[3-(2-aminoethyl)-[1,2,4]triazolo[4,3-a]pyridin-8-yl]-3-(5-cyclopropyl-2-methylpyrazol-3-yl)oxybenzonitrile]: the IC50 is 10 to 1000 nM.
In the case of `Cn1nc(C2CC2)cc1Oc1cc(C#N)ccc1-c1cccn2c(C3CNC3)nnc12` [compound 571, 4-[3-(azetidin-3-yl)-[1,2,4]triazolo[4,3-a]pyridin-8-yl]-3-(5-cyclopropyl-2-methylpyrazol-3-yl)oxybenzonitrile], the IC50 is > 1000 nM.
As for `Cc1cc(Oc2cc(C#N)ccc2-c2ncc(CN)cn2)cc(-c2ccccn2)n1` [compound 572, 4-[5-(aminomethyl)pyrimidin-2-yl]-3-(2-methyl-6-pyridin-2-ylpyridin-4-yl)oxybenzonitrile], the IC50 is 10 to 1000 nM.
Then `Cn1nc(C2CC2)cc1Oc1cc(C#N)ccc1-c1cccn(CCN)c1=O` [compound 573, 4-[1-(2-aminoethyl)-2-oxopyridin-3-yl]-3-(5-cyclopropyl-2-methylpyrazol-3-yl)oxybenzonitrile], with 10 to 1000 nM.

Source of the values: patent publication US20230167073A1 (Teijin Pharma Limited, priority 2020, published 2023).
